For 1 molecule, IC50 results are on record in BindingDB's records for doi:10.1016/j.bmcl.2009.01.088 (Abbott Laboratories, 2009).

The assay has as its target Mitogen-activated protein kinase kinase kinase 8 (Homo sapiens, UniProt P41279). Kind of assay: COT HTRF Assay. The note with it: pH 7.5; 22 °C. Here is the method:
The COT direct HTRF assay was carried out using biotin-MEK1 as a substrate. The reaction was carried out in black 96 half-well plates. At designated time points, EDTA was added to quench the reaction. Detection reagents were then added to each well to make anti-phospho-MEK1-Eu antibody and SAXL. The plates were incubated, and then read using the RUBYstar HTRF reader.
Background: TR-FRET usually uses a lanthanide donor and a delayed reading to cut background.

Sequence of Mitogen-activated protein kinase kinase kinase 8 (P41279 whole entry): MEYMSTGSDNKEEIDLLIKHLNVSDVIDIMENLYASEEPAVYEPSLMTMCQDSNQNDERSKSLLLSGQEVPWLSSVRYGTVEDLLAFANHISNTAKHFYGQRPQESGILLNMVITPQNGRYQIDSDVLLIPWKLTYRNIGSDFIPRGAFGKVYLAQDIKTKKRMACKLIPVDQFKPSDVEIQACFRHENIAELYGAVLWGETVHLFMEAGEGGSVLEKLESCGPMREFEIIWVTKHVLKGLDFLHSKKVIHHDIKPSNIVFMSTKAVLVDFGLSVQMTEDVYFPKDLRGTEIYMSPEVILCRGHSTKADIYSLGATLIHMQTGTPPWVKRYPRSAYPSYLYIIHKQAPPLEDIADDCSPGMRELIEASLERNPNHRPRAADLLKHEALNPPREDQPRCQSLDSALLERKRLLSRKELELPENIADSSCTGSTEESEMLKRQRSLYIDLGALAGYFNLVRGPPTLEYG

Broadly, the IC50 is the midpoint of a concentration-inhibition curve. For the molecule `O=C(O)c1cc2c(Oc3ccc(I)cc3)cncc2s1`, the IC50 was 1 µM.
